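Assay format: 96-well plates, 48-hour exposure. GI50 is the concentration that inhibits growth by half. TGI denotes the concentration required for complete inhibition of growth.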
Assays:
Test in all cases: DTP human tumour cell line panel, 48 h
SF-295 CNS = tested on: SF-295 CNS
SR leukemia = tested on: SR leukemia
T-47D breast = tested on: T-47D breast
SNB-75 CNS = tested on: SNB-75 CNS
PC-3 prostate = tested on: PC-3 prostate
MDA-MB-231 breast = tested on: MDA-MB-231 breast
RPMI-8226 leukemia = tested on: RPMI-8226 leukemia
KM12 colon = tested on: KM12 colon
NCI-H522 lung = tested on: NCI-H522 lung
IGROV1 ovarian = tested on: IGROV1 ovarian
HCT-15 colon = tested on: HCT-15 colon
RXF 393 renal = tested on: RXF 393 renal
OVCAR-3 ovarian = tested on: OVCAR-3 ovarian
HOP-62 NSCLC = tested on: HOP-62 NSCLC
MALME-3M melanoma = tested on: MALME-3M melanoma
HL-60(TB) leukemia = tested on: HL-60(TB) leukemia
UACC-62 melanoma = tested on: UACC-62 melanoma
MDA-MB-435 = tested on: MDA-MB-435
M14 melanoma = tested on: M14 melanoma
CCRF-CEM leukemia = tested on: CCRF-CEM leukemia
NCI-H226 lung = tested on: NCI-H226 lung
SF-268 CNS = tested on: SF-268 CNS
HT29 colon = tested on: HT29 colon
UACC-257 melanoma = tested on: UACC-257 melanoma
HOP-92 NSCLC = tested on: HOP-92 NSCLC
HCT-116 colon = tested on: HCT-116 colon
SK-MEL-5 melanoma = tested on: SK-MEL-5 melanoma
MOLT-4 leukemia = tested on: MOLT-4 leukemia
SN12C renal = tested on: SN12C renal
MCF7 breast = tested on: MCF7 breast
A549 NSCLC = tested on: A549 NSCLC
OVCAR-8 ovarian = tested on: OVCAR-8 ovarian
OVCAR-4 ovarian = tested on: OVCAR-4 ovarian
TK-10 renal = tested on: TK-10 renal
SF-539 CNS = tested on: SF-539 CNS
U251 CNS = tested on: U251 CNS
SK-MEL-28 melanoma = tested on: SK-MEL-28 melanoma
EKVX NSCLC = tested on: EKVX NSCLC
786-0 renal = tested on: 786-0 renal
COLO 205 colon = tested on: COLO 205 colon
BT-549 breast = tested on: BT-549 breast
NCI-H460 lung = tested on: NCI-H460 lung
HCC-2998 colon = tested on: HCC-2998 colon
HS 578T breast = tested on: HS 578T breast
DU-145 prostate = tested on: DU-145 prostate
CAKI-1 renal = tested on: CAKI-1 renal
SK-MEL-2 melanoma = tested on: SK-MEL-2 melanoma
NCI/ADR-RES ovarian = tested on: NCI/ADR-RES ovarian
UO-31 renal = tested on: UO-31 renal
ACHN renal = tested on: ACHN renal
LOX IMVI melanoma = tested on: LOX IMVI melanoma
A498 renal = tested on: A498 renal
K-562 leukemia = tested on: K-562 leukemia
SW-620 colon = tested on: SW-620 colon
SNB-19 CNS = tested on: SNB-19 CNS
OVCAR-5 ovarian = tested on: OVCAR-5 ovarian
NCI-H23 lung = tested on: NCI-H23 lung
SK-OV-3 ovarian = tested on: SK-OV-3 ovarian

Cc1nn(-c2ccccc2)c2ncnc(N/N=C/c3ccccc3O)c12
GI50 (SF-295 CNS): 0.407 µM
TGI (SF-295 CNS): 11.7 µM
GI50 (SR leukemia): 0.232 µM
TGI (SR leukemia): > 100 µM
GI50 (T-47D breast): 1.92 µM
TGI (T-47D breast): 13.7 µM
GI50 (SNB-75 CNS): 0.267 µM
TGI (SNB-75 CNS): 2.99 µM
GI50 (PC-3 prostate): 0.345 µM
TGI (PC-3 prostate): > 49.7 µM
GI50 (MDA-MB-231 breast): 0.529 µM
TGI (MDA-MB-231 breast): 53.3 µM
GI50 (RPMI-8226 leukemia): 0.394 µM
TGI (RPMI-8226 leukemia): 33.2 µM
GI50 (KM12 colon): 0.382 µM
TGI (KM12 colon): > 100 µM
GI50 (NCI-H522 lung): 0.416 µM
TGI (NCI-H522 lung): 44.9 µM
GI50 (IGROV1 ovarian): 0.597 µM
TGI (IGROV1 ovarian): 16.5 µM
GI50 (HCT-15 colon): 0.266 µM
TGI (HCT-15 colon): 17.5 µM
GI50 (RXF 393 renal): 0.882 µM
TGI (RXF 393 renal): 9.11 µM
GI50 (OVCAR-3 ovarian): 0.306 µM
TGI (OVCAR-3 ovarian): 46.3 µM
GI50 (HOP-62 NSCLC): 0.288 µM
TGI (HOP-62 NSCLC): 6.23 µM
GI50 (MALME-3M melanoma): 0.505 µM
TGI (MALME-3M melanoma): 11.8 µM
GI50 (HL-60(TB) leukemia): 0.37 µM
TGI (HL-60(TB) leukemia): > 100 µM
GI50 (UACC-62 melanoma): 2.01 µM
TGI (UACC-62 melanoma): 12.1 µM
GI50 (MDA-MB-435): 0.544 µM
TGI (MDA-MB-435): > 100 µM
GI50 (M14 melanoma): 0.27 µM
TGI (M14 melanoma): 1.64 µM
GI50 (CCRF-CEM leukemia): 0.14 µM
TGI (CCRF-CEM leukemia): > 100 µM
GI50 (NCI-H226 lung): 2.55 µM
TGI (NCI-H226 lung): 8.59 µM
GI50 (SF-268 CNS): 0.3 µM
TGI (SF-268 CNS): > 100 µM
GI50 (HT29 colon): 1.12 µM
TGI (HT29 colon): > 50 µM
GI50 (UACC-257 melanoma): 1.81 µM
TGI (UACC-257 melanoma): 31.1 µM
GI50 (HOP-92 NSCLC): 0.455 µM
TGI (HOP-92 NSCLC): 6.75 µM
GI50 (HCT-116 colon): 0.422 µM
TGI (HCT-116 colon): 27.3 µM
GI50 (SK-MEL-5 melanoma): 0.621 µM
TGI (SK-MEL-5 melanoma): 4.72 µM
GI50 (MOLT-4 leukemia): 0.28 µM
TGI (MOLT-4 leukemia): > 59 µM
GI50 (SN12C renal): 0.52 µM
TGI (SN12C renal): > 49.6 µM
GI50 (MCF7 breast): 0.353 µM
TGI (MCF7 breast): 12.5 µM
GI50 (A549 NSCLC): 0.936 µM
TGI (A549 NSCLC): > 41.9 µM
GI50 (OVCAR-8 ovarian): 0.354 µM
TGI (OVCAR-8 ovarian): > 100 µM
GI50 (OVCAR-4 ovarian): 0.303 µM
TGI (OVCAR-4 ovarian): > 54.3 µM
GI50 (TK-10 renal): 2.97 µM
TGI (TK-10 renal): > 70.6 µM
GI50 (SF-539 CNS): 0.396 µM
TGI (SF-539 CNS): 7.13 µM
GI50 (U251 CNS): 0.425 µM
TGI (U251 CNS): > 49.5 µM
GI50 (SK-MEL-28 melanoma): 0.481 µM
TGI (SK-MEL-28 melanoma): > 100 µM
GI50 (EKVX NSCLC): 0.391 µM
TGI (EKVX NSCLC): > 43.3 µM
GI50 (786-0 renal): 0.396 µM
TGI (786-0 renal): 27.7 µM
GI50 (COLO 205 colon): 0.385 µM
TGI (COLO 205 colon): 22.9 µM
GI50 (BT-549 breast): 0.996 µM
TGI (BT-549 breast): 41.9 µM
GI50 (NCI-H460 lung): 0.382 µM
TGI (NCI-H460 lung): > 78.4 µM
GI50 (HCC-2998 colon): 0.793 µM
TGI (HCC-2998 colon): 35.2 µM
GI50 (HS 578T breast): 1.83 µM
TGI (HS 578T breast): > 100 µM
GI50 (DU-145 prostate): 0.318 µM
TGI (DU-145 prostate): > 100 µM
GI50 (CAKI-1 renal): 0.943 µM
TGI (CAKI-1 renal): 8.86 µM
GI50 (SK-MEL-2 melanoma): 0.633 µM
TGI (SK-MEL-2 melanoma): 47.1 µM
GI50 (NCI/ADR-RES ovarian): 0.331 µM
TGI (NCI/ADR-RES ovarian): 8.54 µM
GI50 (UO-31 renal): 0.325 µM
TGI (UO-31 renal): 2.85 µM
GI50 (ACHN renal): 0.283 µM
TGI (ACHN renal): 40.4 µM
GI50 (LOX IMVI melanoma): 0.317 µM
TGI (LOX IMVI melanoma): 5.73 µM
GI50 (A498 renal): 2.82 µM
TGI (A498 renal): 11.2 µM
GI50 (K-562 leukemia): 0.397 µM
TGI (K-562 leukemia): > 100 µM
GI50 (SW-620 colon): 0.537 µM
TGI (SW-620 colon): > 96 µM
GI50 (SNB-19 CNS): 0.507 µM
TGI (SNB-19 CNS): > 100 µM
GI50 (OVCAR-5 ovarian): 3.85 µM
TGI (OVCAR-5 ovarian): > 100 µM
GI50 (NCI-H23 lung): 0.509 µM
TGI (NCI-H23 lung): 25.5 µM
GI50 (SK-OV-3 ovarian): 0.465 µM
TGI (SK-OV-3 ovarian): 4.72 µM
